The text below walks through data of US10342796B2, “Acrylanilide derivative, preparation method, and applications thereof in pharmacy” (Ancureall Pharmaceutical (Shanghai) Co., Ltd., priority 2015, dated 2019).

Experiment [1] relates to H1975 tumor cells. The experiment in a line: In vivo tumor growth inhibition, xenograft. Set-up: species or system Bab/c nude mice. To be noted: Mus musculus, NCI-H1975, po, 456 h; 25 mg/kg intragastric once daily, day 19; read-out: TGI (%) H1975. The source says: (§1) Tumor xenograft models of immunodeficient mice are an effective tool to test the antitumor activity of the compound in vivo. Generally, the effectiveness of human tumor cell xenograft is positively correlated with the clinical treatment of human tumor. Bab/c immunodeficient mouse is one of the most commonly used xenograft animals with human tumor cells. In order to test whether the present compounds can inhibit the in vivo growth of the tumor cells expressing EGFR mutantion or HER2/ErbB2 overexpression, H1975, PC-9 and NCI-N87 cell lines were used in the experiments. When H1975, PC-9 and NCI-N87 cells were in growth logarithmic phase, they were digested with pancreatin. An appropriate amount of 1×RPMI1640 culture medium (serum-free) was added to stop digestion. The cells were collected to a 50 ml centrifuge tube (Corning), and centrifuged at 1700 rm for 3 min. The supernatant was discard, then the cells were suspended with 1×RPMI1640 culture medium and count the number. […] cells/mL was prepared and then placed on ice. 5˜10×10^6 (0.2 ml) cells were inoculated subcutaneously on the right side of the back of 6˜8 week old female Bab/c nude mice (about 20 g in weight). When the tumor average volume growed to 100˜200 mm^3, the mice were randomly divide into groups (3-6 mice per group), and marked by ear pierced tags and weighted. The test compounds and the reference compound (with a purity over 99% and individual impurity not higher than 0.2%) were formulated to emulsion suspension with CM (30% polyethylene glycol 400, 0.5% Tween-80 and 2.5% propylene glycol) respectively. Intragastric administration was continued once daily at a dosage of 25 mg/kg (0.1 ml/10 g mouse). The tumor was measured 3 times per week. When the average volume of the tumor in CM control group was up to 1500 mm^3 or after administration for 30 days, the experiment was ended.
(§2) The volume of tumor (V) was calculated as V=½*a*b^2 (a represents length of tumors, b represents width of tumors). Tumor growth inhibition (TGI) was calculated as: TGI (%)=100−(VT−VT0)/(VC−VC0)*100%; where VT0 and VT are the tumor volumes of the beginning and finish days of dosed groups; and VC0 and VC are the tumor volumes of the beginning and finish days for the control group, respectively.

For experiment [2], the system named is HER2/ErbB2 amplified cell line N87. The experiment in a line: In vivo tumor growth inhibition, xenograft. Set-up: species or system Bab/c nude mice. To be noted: Mus musculus, po, 456 h, 25 mg/kg intragastric once daily, day 19, read-out: TGI (%).
Source text: as §1, §2

The test system of experiment [3] is PC-9 tumor cells. As to the kind of experiment: In vivo tumor growth inhibition, xenograft. On the set-up: species or system Bab/c nude mice. As to conditions: Mus musculus, po, 456 h; 25 mg/kg intragastric once daily, day 19; read-out: TGI (%) PC-9.
Source text: as §1, §2

In experiment [4] the test system is A375 (EGFR wt, BRAF V600E). As to the kind of experiment: Growth inhibition GI50 in vitro (CCK8/MTT, 72 h). The experiment is classed as cell-based. As to conditions: Homo sapiens, A-375; A375, EGFR wt, BRAF V600E; read-out: GI50. The source says: EGFR wild type cell lines: human epidermal cancer cell line A431 (EGFR WT, amplification and high expression, from Shanghai Cell Bank of Chinese Academy of Sciences and ATCC), NSCLC cell lines NCI-H460 (EGFR WT, Kras G61H and PI3KCA E545K mutants, ATCC) and NCI-H1299 (EGFR WT, ATCC), melanoma cell line A375 (EGFR WT and BRAF V600E mutant, from Shanghai Cell Bank of Chinese Academy of Sciences, ATCC), human lung cancer cell line NCI-H292 (EGFR WT, from human lung mucoepidermoid carcinoma/lymphatic metastasis, purchased from Shanghai Cell Bank of Chinese Academy of Sciences) were cultured with 1×RPMI1640 complete medium which was supplement with 10% FBS. NSCLC cell line A549 (EGFR WT and Kras G12S mutant, from Shanghai Cell Bank of Chinese Academy of Sciences) was cultured with 1×Ham'S F12K complete medium which was supplement with 10% FBS, 1% double-antibiotics and 2 mM glutamine.
(§3) The suspension cells were collected by centrifugation. The supernatant was discard and the cell pellet was resuspended and counted. Different cell concentrations (5˜10×10^4 cells/mL) were prepared according to the growth cycle of each cell line and then seeded on a 96-well plate (Corning), 100 μL/well. The cells were incubated over night at 37° C., 5% CO2. The compounds were added to the cells on the second day with 2 wells in parallel. The final concentration of organic solvent shall not exceed 1%. The cells were continually incubated for 72 h, and then subjected to MTT assay.
(§4) The present compounds and the reference compounds were dissolved with DMSO (Sigma), respectively. […] The storage concentration of compounds was 10 mM and kept at −20° C. They were diluted by 2 times or 10 times with serial dilution before using.
(§5) Dojindo CCK8 reagent kit was used as MTT assay. […] FC meter was used as microplate reader.
(§6) Adherent cell culture medium was discard and immediately replaced with fresh prepared medium which contains 10% CCK8 reagent (100 μL/well). For the suspension cells, CCK8 was directly added to 10% of the final concentration. The cells were continually incubated for 1˜4 h. When the color of control wells turned to dark yellow, the absorption value was measured at OD450 nm. The cell growth rate was calculated according to the following formula: cell growth rate (%)=100*(T−T0)/(C−T0), T=optical density of drug treatment cell well—optical density of blank control well; T0=optical density of cell well before drug treatment—optical density of blank control well; C=optical density of cell well of solvent control group—optical density of blank control well. […] The experiment was independently repeated 1˜3 times, and subject to biological statistical analysis.
(§7) Growth inhibition assay was conducted in the cell lines shown Table 14 with the different oncogene mutations. Each compound started at 1000 nM as an initial concentration and was diluted by 2 times with serial dilution to 0.03 nM.

Experiment [5] deals with SH-SY5Y (ALK F1174L). As to the kind of experiment: Growth inhibition GI50 in vitro (CCK8/MTT, 72 h). Format: cell-based. To be noted: Homo sapiens, EGFR wt. The method, then:
Neuroblastoma cell line SH-SY5Y (ALK F1174L positive) (Shanghai Cell Bank of Chinese Academy of Sciences) was cultured with MEM complete medium (supplement with 10% FBS, 1% NEAA, 1% double-antibiotics and 1 mM of sodium pyruvate).
as §3, §4, §5, §6, §7

Experiment [6] has as its system Ramos (BTK). As to the kind of experiment: Growth inhibition GI50 in vitro (CCK8/MTT, 72 h). Format: cell-based, human. As for the experimental part: RAMOS is human B lymphocytic leukemia cell line positively expressing BTK. It was cultured with 1×RPMI1640 complete medium (supplement with 10% FBS).
as §3, §4, §5, §6, §7

Experiment [7] concerns HEL (Jak2 V167F). The experiment in a line: Growth inhibition GI50 in vitro (CCK8/MTT, 72 h). To be noted: Homo sapiens; HEL, Jak2 V167F; read-out: GI50. Format: cell-based. As for the experimental part:
Jak2 is a kind of non-receptor PTK (Janus Kinase 2) with great significance in cell growth, differentiation and transformation. Jak2 gene mutation often leads to bone marrow hyperplasia and transformation. Especially Jak2 V167F mutation is common for clinical patients. Human erythroleukemia cell line HEL expressing Jak2 V167F was cultured with 1×RPMI1640 complete medium (supplement with 10% FBS).
as §3, §4, §5, §6, §7

The structures appear in SMILES notation.

For the compound `C=CC(=O)Nc1cc(Nc2nccc(-n3ccc4ccc(F)cc43)n2)c(OC)cc1N(C)CCN(C)C` [Compound 63, N-(5-(4-(6-fluoro-1H-indol-1-yl)-pyrimidin-2-ylamino)-2-((2-(dimethylamino)ethyl)-methyl-amino)-4-methoxyl-phenyl)-acrylamide], the inhibition in vivo at 25 mg/kg worked out at 98.3% in experiment [1], 94.7% in experiment [2] and 98.3% in experiment [3].

As to `C=CC(=O)Nc1cc(Nc2cc(-c3cn(C(C)C)c4ccc(F)cc34)ncn2)c(OC)cc1N(C)CCN(C)C` [Compound 191, N-(5-(6-(5-fluoro-1-isopropyl-1H-indol-3-yl)-pyrimidin-4-ylamino)-4-methoxyl-2-((2-dimethylamino-ethyl)-methyl-amino)-phenyl)-acrylamide], the inhibition in vivo at 25 mg/kg turned out to be 99.3% in experiment [1], 96.6% in experiment [2] and 98.8% in experiment [3].

As to `C=CC(=O)Nc1cc(Nc2cc(Nc3cc(F)c(OC)c(Cl)c3)ncn2)c(OC)cc1N(C)CCN(C)C` [Compound 236, N-(5-(6-(3-chloro-5-fluoro-4-methoxyphenylamino)-pyrimidin-4-yl-amino)-2-((2-dimethylamino-ethyl)-methyl-amino)-4-methoxyl-phenyl)-acrylamide], the inhibition in vivo at 25 mg/kg in experiment [2] is 97.5%.

With `C=CC(=O)Nc1cc(Nc2ncnc(Nc3cccc(Br)c3)n2)c(OC)cc1N(C)CCN(C)C` [Compound 115, N-(5-(4-(3-bromo-phenylamino)-[1,3,5]triazin-2-ylamino)-2-((2-dimethylamino-ethyl)-methyl-amino)-4-methoxyl-phenyl)-acrylamide], the inhibition in vivo at 25 mg/kg in experiment [1] was 59.1%; in experiment [2], 97.8%; in experiment [3], 97.1%.

Consider `C=CC(=O)Nc1cc(Nc2nccc(-n3ccc4c(OC)cccc43)n2)c(OC)cc1N(C)CCN(C)C` [Compound 99, N-(5-(4-(4-methoxyl-1H-indol-1-yl)-pyrimidin-2-ylamino)-2-(2-(dimethylamino-ethyl)-methyl-amino)-4-methoxyl-phenyl)-acrylamide], for which the values for the inhibition in vivo at 25 mg/kg in experiment [1], in experiment [2] and in experiment [3] were 94.6%, 95.4% and 95.8%, respectively.

With `C=CC(=O)Nc1cc(Nc2cc(-c3cn(C(C)C)c4ccccc34)ncn2)c(OC)cc1N(C)CCN(C)C` [Compound 183], the GI50 is over 1 µM in experiment [4]; over 1 µM in experiment [5]; 0.0781 µM in experiment [6] (Homo sapiens, Ramos, BTK); over 1 µM in experiment [7]. The “inhibition effects” value in experiment [6] (BTK+ Ramos cells) is recorded as “moderate inhibition effects”. The inhibition in vivo at 25 mg/kg in experiment [1] came to 97.4%; in experiment [2], 97.7%; in experiment [3], 98.8%.
